Test results published in patent US10093660B2, “Sulfoximine substituted quinazolines for pharmaceutical compositions” (EVOTEC INTERNATIONAL GMBH, priority 2013, dated 2018).

Biological target: MNK1a (Homo sapiens (Human), UniProt Q9BUB5)
Assay: MNK1 in vitro kinase assay (Assay 3), Z'-LYTE
Assay type: biochemical
Settings: not given
From the text: C. MNK1 In Vitro Kinase Assay (Assay 3)
MNK1 Data can be obtained from the MNK1 Z′-LYTE® assay. The MNK1 Z′-LYTE® screening protocol and assay conditions are also described on www.invitrogen.com.
The assay is described as follows:
The Z′-LYTE® biochemical assay employs a fluorescence-based, coupled-enzyme format and is based on the differential sensitivity of phosphorylated and non-phosphorylated peptides to proteolytic cleavage. The peptide substrate is labeled with two fluorophores—one at each end—that make up a FRET pair.
In the primary reaction, the kinase transfers the gamma-phosphate of ATP to a single tyrosine, serine or threonine residue in a synthetic FRET-peptide. In the secondary reaction, a site-specific protease recognizes and cleaves non-phosphorylated FRET-peptides. Phosphorylation of FRET-peptides suppresses cleavage by the Development Reagent. Cleavage disrupts FRET between the donor (i.e., coumarin) and acceptor (i.e., fluorescein) fluorophores on the FRET-peptide, whereas uncleaved, phosphorylated FRET-peptides maintain FRET. A ratiometric method, which calculates the ratio (the Emission Ratio) of donor emission to acceptor emission after excitation of the donor fluorophore at 400 nm, is used to quantitate reaction progress, as shown in the equation below.
The 2×MKNK1 (MNK1) mixture is prepared in 50 mM HEPES pH 7.5, 0.01% BRIJ-35, 10 mM MgCl2, 4 mM MnCl2, 1 mM EGTA, 2 mM DTT.
The Test Compounds are screened in 1% DMSO (final) in the well.
All Peptide/Kinase Mixtures are diluted to a 2× working concentration in the MNK1 Kinase Buffer.
All ATP Solutions are diluted to a 4× working concentration in Kinase Buffer (50 mM HEPES pH 7.5, 0.01% BRIJ-35, 10 mM MgCl2, 1 mM EGTA).
Development Reagent Solution:
The Development Reagent is diluted in Development Buffer
1. 2.5 μL—4× Test Compound
2. 5 μL—2× Peptide/Kinase Mixture
5. 60-minute Kinase Reaction incubation at room temperature
6. 5 μL—Development Reagent Solution
8. 60-minute Development Reaction incubation at room temperature
9. Read on fluorescence plate reader and analyze the data
Control C0%=Average Coumarin emission signal of the 0% Phos. Control F100%=Average Fluorescein emission signal of the 100% Phos. Control F0%=Average Fluorescein emission signal of the 0% Phos. Control Graphing Software
SelectScreen® Kinase Profiling Service uses XLfit from IDBS. […] The activity of MNK proteins can be assayed also by other in vitro kinase assay formats. […] In general, MNK kinase assays can be performed such that a MNK substrate such as a protein or a peptide, which may or may not include modifications as further described below, or others are phosphorylated by MNK proteins having enzymatic activity in vitro. The activity of a candidate agent can then be determined via its ability to decrease the enzymatic activity of the MNK protein. The kinase activity may be detected by change of the chemical, physical or immunological properties of the substrate due to phosphorylation.

Chain of MNK1a (Q9BUB5 other isoform, or with tags, fused parts or gaps): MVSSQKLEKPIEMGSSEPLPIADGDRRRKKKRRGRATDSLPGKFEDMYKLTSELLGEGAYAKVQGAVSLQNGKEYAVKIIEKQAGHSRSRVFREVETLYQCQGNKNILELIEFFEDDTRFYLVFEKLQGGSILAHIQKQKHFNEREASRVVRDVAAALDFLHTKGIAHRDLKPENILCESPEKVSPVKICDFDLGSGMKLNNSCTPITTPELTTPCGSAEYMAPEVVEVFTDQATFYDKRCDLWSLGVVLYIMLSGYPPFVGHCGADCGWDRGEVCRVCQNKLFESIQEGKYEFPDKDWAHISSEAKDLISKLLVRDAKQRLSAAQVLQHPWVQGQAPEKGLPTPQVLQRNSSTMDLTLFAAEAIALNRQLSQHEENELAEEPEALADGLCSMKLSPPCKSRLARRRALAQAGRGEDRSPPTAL

SMILES | IC50 [µM]
Cc1cc(N=S2(=O)CCC2)cc2ncnc(Nc3ccc(F)cc3O[C@H]3COC[C@@H]3O)c12 [Example 2.36] | 0.051
CO[C@@H]1COC[C@@H]1Oc1cc(F)ccc1Nc1ncnc2cc(N=S3(=O)CCCC3)cc(Cl)c12 (racemic) [Example 1.6] | 0.045

Same assay, conditions: compound concentration of 1 μM, read-out: MNK1 % INH

SMILES | inhibition at 1 µM [%]
Cc1cc(N=S2(=O)CCCC2)cc2ncnc(Nc3cccnc3O[C@H]3COC[C@H]3O)c12 (single isomer, unassigned) [Example 14.4] | 103
CO[C@H]1COC[C@H]1Oc1ncccc1Nc1ncnc2cc(N=S(C)(C)=O)cc(C)c12 (racemic) [Example 2.1] | 88
Cc1cc(N=S2(=O)CCC2)cc2ncnc(Nc3ccc(F)cc3O[C@@H]3COC[C@@H]3O)c12 (single isomer, unassigned) [Example 1.36] | 98
Cc1cc(N=S(C)(C)=O)cc2ncnc(Nc3ccc(F)cc3O[C@H]3COC[C@H]3O)c12 (racemic) [Example 2.7] | 97
Cc1cc(N=S2(=O)CCC2)cc2ncnc(Nc3ccc(F)cc3O[C@@H]3COC[C@H]3O)c12 [Example 2.47] | 103
Cc1cc(N=S2(=O)CCC2)cc2ncnc(Nc3cccnc3O[C@H]3COC[C@H]3O)c12 (racemic) [Example 2.32] | 97
Cc1cc(N=S2(=O)CCCC2)cc2ncnc(Nc3cccnc3O[C@@H]3COC[C@@H]3O)c12 (single isomer, unassigned) [Example 14.3] | 100
O=S1(=Nc2cc(F)c3c(Nc4ccc(F)cc4O[C@H]4COC[C@@H]4O)ncnc3c2)CCCC1 [Example 2.66] | 100
Cc1cc(N=S2(=O)CCCC2)cc2ncnc(Nc3cccnc3O[C@@H]3COC[C@@H]3O)c12 (racemic) [Example 2.3] | 102
Cc1cc(N=S2(=O)CCC2)cc2ncnc(Nc3ccc(F)cc3O[C@H]3COC[C@H]3O)c12 (single isomer, unassigned) [Example 1.37] | 97
Cc1cc(N=S2(=O)CCCC2)cc2ncnc(Nc3cccnc3O[C@H]3COC[C@@H]3O)c12 [Example 2.24] | 99
Cc1cc(N=S(C)(=O)C2CC2)cc2ncnc(Nc3ccc(F)cc3O[C@H]3COC[C@@H]3O)c12 (stereo partly drawn) [Example 2.77] | 94
O=S1(=Nc2cc(F)c3c(Nc4cccnc4O[C@H]4COC[C@H]4O)ncnc3c2)CCCC1 (racemic) [Example 2.30] | 97

Biological target: MNK2a (Homo sapiens (Human), UniProt Q9HBH9)
Assay: MNK2a in vitro kinase assay (Assay 2), ADP-Glo
Assay type: biochemical
Settings: not given
From the text: B. MNK2a In Vitro Kinase Assay (Assay 2)

Chain of MNK2a (Q9HBH9 whole entry): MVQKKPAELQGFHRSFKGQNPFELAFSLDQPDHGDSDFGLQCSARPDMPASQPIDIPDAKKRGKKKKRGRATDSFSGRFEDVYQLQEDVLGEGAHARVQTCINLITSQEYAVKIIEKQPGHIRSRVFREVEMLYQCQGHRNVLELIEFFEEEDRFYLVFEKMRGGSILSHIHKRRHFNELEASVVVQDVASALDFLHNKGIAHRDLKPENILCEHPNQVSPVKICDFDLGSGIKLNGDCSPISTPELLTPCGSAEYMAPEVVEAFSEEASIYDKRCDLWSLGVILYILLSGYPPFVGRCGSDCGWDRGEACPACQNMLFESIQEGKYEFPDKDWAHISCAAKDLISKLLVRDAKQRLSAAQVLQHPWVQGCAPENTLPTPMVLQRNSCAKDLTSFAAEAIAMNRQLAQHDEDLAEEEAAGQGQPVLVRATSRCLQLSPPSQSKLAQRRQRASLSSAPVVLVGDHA

SMILES | IC50 [µM]
CO[C@@H]1COC[C@@H]1Oc1cc(F)ccc1Nc1ncnc2cc(N=S(C)(C)=O)cc(C)c12 (racemic) [Example 2.9] | 0.004

Same assay, conditions: assay 2; read-out: MNK2 IC50

SMILES | IC50 [µM]
Cc1cc(N=S(C)(C)=O)cc2ncnc(Nc3cccnc3O[C@H]3COC[C@H]3OCCF)c12 (racemic) [Example 2.26] | 0.003
COc1cc(N=S(C)(=O)c2ccncc2)cc2ncnc(Nc3ccc(F)cc3O[C@H]3COC[C@H]3O)c12 (mixture of isomers) [Example 9.27] | 0.086
CS(=O)(=Nc1cc(F)c2c(Nc3ccc(F)cc3O[C@@H]3COC[C@@H]3O)ncnc2c1)c1ccccc1 (mixture of isomers) [Example 2.95] | 0.054
Cc1cc(N=S2(=O)CCCC2)cc2ncnc(Nc3ccc(F)cc3O[C@@H]3COC[C@H]3F)c12 (racemic) [Example 2.101] | 0.006
Cc1cc(N=S(C)(C)=O)cc2ncnc(Nc3ccc(F)cc3O[C@H]3C[C@@H]4CO[C@H]3C4)c12 (racemic) [Example 2.99] | 0.003
CS(=O)(=Nc1cc(F)c2c(Nc3ccc(F)cc3O[C@H]3COC[C@@H]3O)ncnc2c1)c1cccnc1 (stereo partly drawn) [Example 2.69] | 0.022
CC1CCS(=O)(=Nc2cc(F)c3c(Nc4ccc(F)cc4O[C@@H]4COC[C@@H]4O)ncnc3c2)C1 (mixture of isomers) [Example 2.96] | 0.009
Cc1cc(N=S2(=O)CCCC2)cc2ncnc(Nc3ccc(F)cc3O[C@H]3CN(C)C[C@@H]3O)c12 [Example 2.61] | 0.012
CC(C)S(C)(=O)=Nc1cc(F)c2c(Nc3ccc(F)cc3O[C@@H]3COC[C@@H]3O)ncnc2c1 (mixture of isomers) [Example 2.90] | 0.07
CS(=O)(=Nc1cc(F)c2c(Nc3ccc(F)cc3O[C@H]3COC[C@@H]3O)ncnc2c1)C1CC1 (stereo partly drawn) [Example 2.73] | 0.02
CS(=O)(=Nc1cc(F)c2c(Nc3ccc(F)cc3O[C@H]3COC[C@@H]3O)ncnc2c1)c1ccncc1 (stereo partly drawn) [Example 2.97] | 0.071
CS(=O)(=Nc1cc(F)c2c(Nc3ccc(F)cc3O[C@H]3COC[C@@H]3O)ncnc2c1)c1ccccc1 (stereo partly drawn) [Example 2.86] | 0.013
O=S1(=Nc2cc(F)c3c(Nc4ccc(F)cc4O[C@@H]4COC[C@@H]4O)ncnc3c2)CCC1 (racemic) [Example 2.87] | 0.01
Cc1cc(N=S(C)(C)=O)cc2ncnc(Nc3ccc(F)cc3O[C@@H]3C[C@@H]4CC[C@H]3O4)c12 (racemic) [Example 2.98] | 0.006
CO[C@H]1COC[C@H]1Oc1cc(F)ccc1Nc1ncnc2cc(N=S(C)(C)=O)cc(C)c12 [Example 14.7] | 0.007
CO[C@H]1COC[C@H]1Oc1ncccc1Nc1ncnc2cc(N=S3(=O)CCCC3)cc(C)c12 (racemic) [Example 2.2] | 0.006

SMILES | IC50 [µM]
Cc1cc(N=S(C)(C)=O)cc2ncnc(Nc3ccc(F)cc3O[C@@H]3COC[C@H]3F)c12 (racemic) [Example 2.100] | 0.025
CS(=O)(=Nc1cc(F)c2c(Nc3ccc(F)cc3O[C@H]3COC[C@@H]3O)ncnc2c1)C1CCOCC1 (stereo partly drawn) [Example 2.88] | 0.032
CS(=O)(=Nc1cc(F)c2c(Nc3ccc(F)cc3O[C@@H]3COC[C@@H]3O)ncnc2c1)C1CC1 (mixture of isomers) [Example 2.91] | 0.106
COc1cc(N=S(C)(=O)c2ccncc2)cc2ncnc(Nc3ccc(F)cc3O[C@H]3COC[C@@H]3O)c12 (stereo partly drawn) [Example 9.30] | 0.043
COc1cc(N=S(C)(=O)C2CC2)cc2ncnc(Nc3ccc(F)cc3O[C@H]3COC[C@@H]3O)c12 (stereo partly drawn) [Example 9.22] | 0.018
COc1cc(N=S(C)(=O)C2CCOCC2)cc2ncnc(Nc3ccc(F)cc3O[C@H]3COC[C@@H]3O)c12 (stereo partly drawn) [Example 9.11] | 0.015
CS(=O)(=Nc1cc(F)c2c(Nc3ccc(F)cc3O[C@@H]3COC[C@@H]3O)ncnc2c1)c1cccnc1 (mixture of isomers) [Example 2.89] | 0.051
COc1cc(N=S2(=O)CCC(O)CC2)cc2ncnc(Nc3ccc(F)cc3O[C@H]3COC[C@H]3O)c12 (mixture of isomers) [Example 9.25] | 0.026
CS(C)(=O)=Nc1cc(C2CC2)c2c(Nc3ccc(F)cc3O[C@H]3COC[C@@H]3O)ncnc2c1 [Example 1.10] | 0.021
Cc1cc(N=S(C)(C)=O)cc2ncnc(Nc3ccc(F)cc3OC3CCC(O)OC3)c12 (stereo not drawn) [Example 12.2] | 0.003
CS(C)(=O)=Nc1cc(Cl)c2c(Nc3ccc(F)cc3O[C@H]3COC[C@@H]3O)ncnc2c1 [Example 1.8] | 0.002
O=S1(=Nc2cc(F)c3c(Nc4ccc(F)cc4O[C@@H]4COC[C@@H]4O)ncnc3c2)CCC(O)CC1 (mixture of isomers) [Example 2.94] | 0.039
COc1cc(N=S2(=O)CCC(O)CC2)cc2ncnc(Nc3ccc(F)cc3O[C@H]3COC[C@@H]3O)c12 (stereo partly drawn) [Example 9.26] | 0.007
Cc1cc(N=S2(=O)CCC2)cc2ncnc(Nc3ccc(F)cc3OC3CCC(O)OC3)c12 (stereo not drawn) [Example 12.1] | 0.003
COc1cc(N=S(C)(=O)c2ccccc2)cc2ncnc(Nc3ccc(F)cc3O[C@H]3COC[C@@H]3O)c12 (stereo partly drawn) [Example 9.28] | 0.013
COc1cc(N=S2(=O)CCC2)cc2ncnc(Nc3ccc(Cl)nc3O[C@H]3COC[C@@H]3O)c12 [Example 9.5] | 0.001
